Reference: publication PMC4748848, “Pharmacokinetic/Toxicity Properties of the New Anti-Staphylococcal Lead Compound SK-03-92” (Antibiotics, 2015)
Converted amounts (≈) assume the structure as drawn. “And” between values parts separate entries of the source, which are not always exact repeats. Equal entries are not always repeated. “Also recorded” adds a separate entry of the source. Where two headings read alike, the source gives them in different places.

Tests used:
[1] = tested on: several mammalian cell lines; experiment: MTT cytotoxicity, cell lines overall and therapeutic index; assay type: cell-based; conditions: read-out: IC50 in vitro
Experimental: (§1) Initial in vitro safety testing of SK-03-92 was performed with an MTT [3-(4,5-dimethylthiazol-2-yl)-2,5-diphenyltetrazolium bromide] assay (9, American Type Culture Collection) for several tissue culture cell lines (murine monocytic J774A.1, human monocytic U937, human kidney epithelial 293, and human bladder epithelial T24) using mitomycin C (Sigma, St. Louis, MO, USA) and DMSO alone as positive and negative controls, respectively. Assays were done a total of three times per tissue culture cell line.

[2] = tested on: human kidney epithelial 293; experiment: MTT cytotoxicity assay, 293; assay type: cell-based; conditions: cell line printed as 292
Experimental: as §1

Swiss Webster mice = experiment: Initial safety testing in mice, escalating ip dosing (OECD); assay type: in vivo
Experimental: Three female 5–9 week old Swiss Webster mice (Harlan) per drug concentration were injected intraperitoneally (ip) with increasing concentrations of SK-03-92: 5, 50, 300, and 2000 mg/kg according to OECD [10]. The lowest concentration of drug was used first. Overt toxicity (e.g., altered gait, ungroomed, significant weight loss) was monitored.

[3] = Five-day multi-dose oral PK study; assay type: in vivo; conditions: female, BALB/c, mouse, plasma, mice, five-day oral 100 μg/g each day
Experimental: (§2) First, a five-day PK study with SK-03-92 orally administered to female 5-6 week old BALB/c mice was conducted. Three mice received 300 μL of blank vehicle by oral administration. Doses of 100 μg/g SK-03-92 were given orally each day in the vehicle. Blood was collected from three mice at time points 15, 30, 45, 60, 75, and 90 min after administration. Body weight was monitored every day before SK-03-92 administration. Plasma was prepared and stored at −70 °C until analyzed by HPLC. In an extension of this PK study to two-weeks following oral administration of SK-03-92, six mice were dosed in the test (SK-03-92) arm and six vehicle control mice in the other arm. Lastly, a multi-dosing PK analysis was done using two 51-μg/g doses of SK-03-92 per day (given four hours apart) over the course of three days in five mice.

[4] = tested on: human bladder epithelial T24; experiment: MTT cytotoxicity assay, T24; assay type: cell-based; conditions: T-24, T24 cells
Experimental: as §1

[5] = Solubility in vehicles by HPLC; assay type: physicochemical; conditions: for solubility: HPLC
Experimental: An HPLC method was developed on a Halo C18 4.6 × […], 2.7 μm column (MAC-MOD Analytical Inc., Chadds Ford, PA, USA) for the detection and quantitation of SK-03-92. The method was developed using the information obtained from a scouting gradient of 5%–100% acetonitrile over 35 min. A UV spectrum of SK-03-92 was obtained from the scouting gradient and the observed maximum for SK-03-92 was 335 nm, with a local maximum of 224 nm also observed. The 335 nm maximum wavelength was used for the quantitation of SK-03-92, and the 224 nm local maximum wavelength was used to monitor for possible formation of degradation products not visible at the 335 nm wavelength. Flow rate was 0.750 mL/min and injection volume was 10 μL. The mobile phase was 62% acetonitrile (Fisher, Hanover Park, IL, USA):38% water (Milli-Q UV plus) and the isocratic program was 62% acetonitrile:38% water for 20 min. Acquisition time was 10 min and room temperature retention time was 5.4 min. Standards of SK-03-92 were prepared in acetonitrile at concentrations of 0.05–0.005 mg/mL.

[6] = Multi-dosing PK, two doses per day for three days; assay type: in vivo; conditions: mice
Experimental: as §2

[7] = Relative bioavailability / single dose PK, oral; assay type: in vivo, BALB/c mice; conditions: mice
[8] = tested on: S. aureus (including MRSA and VISA strains); design: method as in PMID 21739106; conditions: cited from earlier work
plasma proteins = experiment: Plasma protein binding assay; assay type: in vitro ADME, mice; conditions: mouse plasma; read-out: bound to plasma proteins (converted)
Experimental: Plasma collected from EDTA treated blood from six SK-03-92 dosed mice was added to methyl tert-butyl ether (MTBE) to precipitate the proteins. The precipitated proteins were separated from the remainder of the plasma by centrifugation (14,000× g for 20 min) through a Microcon 10K filter (Millipore) and dried under a stream of nitrogen gas. The dried product was suspended in 62% acetonitrile/38% ddH2O and the AUC was quantified and correlated with the initial concentration of SK-03-92 present in the plasma.

human monocytic U937 = experiment: MTT cytotoxicity assay, U937; assay type: cell-based; conditions: U-937, U937 cells
Experimental: as §1

murine monocytic J774A.1 = experiment: MTT cytotoxicity assay, J774A.1; assay type: cell-based; conditions: Mus musculus, J774.A1; J774A.1 cells
Experimental: as §1

[9] = Two-week multi-dose oral PK study; assay type: in vivo
Experimental: as §2

Single dose PK assay, ip = assay type: in vivo, BALB/c mice; conditions: mice
Experimental: An initial single dose PK experiment was performed using 100 μg/g of formulated SK-03-92 administered ip to twenty-one female, 5–6 week old BALB/c mice (7 per cohort for 3 cohorts, NCI) under parameters established previously. Three animals were used as a control group and received blank vehicle, whereas three mice per time point received 100 μg/g SK-03-92 ip and were sacrificed with blood collected at the 15, 30, 45, 60, 75, and 90 min time points by warming the tails of the mice in warm water, lancing the lateral saphenous tail vein, and collecting the blood (up to 150 μL) into microvette tubes (Sarstedt) containing EDTA or terminal bleed into vacucontainers containing EDTA as an anti-coagulant. Plasma was separated from packed blood cells by centrifugation (600× g) and stored at −70 °C until needed for HPLC analysis. Samples were analyzed with a Shimadzu Prominence HPLC system (Kyoto, Japan) with a Halo C18 column (MAC-MOD Analytical Inc., Chadds Ford, PA, USA). A mobile phase of 62% acetonitrile/38% water, isocratic program of 62% acetonitrile for 20 min, and flow rate of 0.75 mL/min with an injection volume of 10 μL and a retention time of 5.4 min were used. The standard curve for SK-03-92 was linear from 0.0098 to 2.5 μg/mL in plasma. Each chromatogram was collected and integrated to estimate the peak area of analyte by EZ Chrom® software (version.1.0, Agilent Technologies Inc., Santa Clara, CA, USA). The ratio of peak area of SK-03-92 was calculated to estimate the drug concentration(s) using a pre-built calibration curve. Major pharmacokinetic parameters were calculated using the noncompartmental analysis module of WinNonlin® (version 5.1, Pharsight Corp., Princeton, NJ, USA) under sparsely sampling mode.

mice, rats, and humans = conditions: cited from earlier work
[10] = cited from earlier work

COc1cc(O)cc(/C=C/c2cc3ccccc3s2)c1 [SK-03-92, (E)-3-(2-(benzo[b]thiophen-2-yl)vinyl)-5-methoxyphenol]
IC50 [1]: 125 µg/mL (≈ 443 µM)
IC50 [2]: 125 µg/mL (≈ 443 µM)
adverse effects / overt toxicity after single dose (Swiss Webster mice; 2000 mg/kg IP single dose, two-week time frame, 2000 mg/kg): non-toxic; also recorded: did not exhibit gross toxicity
overt toxicity after repeat dose (Swiss Webster mice; repeat dose of 2000 mg/kg a week after initial 2000 mg/kg): no overt toxicity was observed
concentration at 15 min ([3]; after 15 min): 86 ng/mL
concentration at 75 min ([3]; after 75 min): 27 ng/mL
IC50 [4]: 125 µg/mL (≈ 443 µM)
solubility with Solutol HS 15/PBS solution ([5]; Solutol HS 15/PBS solution): less than 10%
solubility ([5]; aqueous buffer, PBS, read-out: Solubility in PBS): < 0.1 µg/mL
solubility ([5]; aqueous with cosolvent or surfactant or cyclodextrin, 20% Solutol HS 15/80% PBS, read-out: Solubility in 20% Solutol HS 15/80% PBS): 4600 µg/mL (≈ 16300 µM)
solubility ([5]; organic solvent or mixture, PEG 400, read-out: Solubility in PEG 400): 9200 µg/mL (≈ 32600 µM)
gross adverse effects ([6]; multi-dose analysis): no gross adverse effects
maximum plasma concentration ([6]; two 51-μg/g doses per day four hours apart for three days): 2.12 µg/mL
half-life ([7]; female, BALB/c, mouse, plasma, po, 100 μg/g, oral, single dose 100 μg/g, read-out: Half-Life): 30 min
Tmax ([7]; female, BALB/c, mouse, plasma, po, 100 μg/g, oral, single dose 100 μg/g, read-out: Tmax (converted)): 22 min
concentration at 15 min ([7]; female, BALB/c, mouse, plasma, 100 μg/g oral, after 15 min, read-out: level detected in mouse plasma): 740 ng/g
concentration at 30 min ([7]; female, BALB/c, mouse, plasma, 100 μg/g oral, by 30 min, read-out: level detected in mouse plasma): 126 ng/g
AUC(0-inf) ([7]; female, BALB/c, mouse, plasma, oral, single dose 100 μg/g, read-out: AUCINF_obs (converted)): 85.7 ng·h/mL
Cmax ([7]; female, BALB/c, mouse, po, 100 μg/g, orally administered, plasma): 370 ng/mL
toxicity signs ([7]; 100 μg/g oral): no toxicity signs were observed
plasma concentrations ([7]; 75 min after oral gavage): negligible levels
oral Cmax relative to Cmax of ip-administered drug ([7]; oral vs ip): approximately 25%
Cl_F_obs ([7]; oral, single dose 100 μg/g): 21.00 ± 6.71 mL/min/g
Tmax ([7]; oral, single dose 100 μg/g): 21.43 ± 11.80 min
Vz_F_obs ([7]; oral, single dose 100 μg/g): 810.67 ± 173.87 mL/g
half-life ([7]; oral, single dose 100 μg/g): 30.40 ± 17.81 min
MIC50 [8]: 1 µg/mL (≈ 3.54 µM)
MIC90 [8]: 2 µg/mL (≈ 7.08 µM)
fraction unbound (plasma proteins): 0.156
IC50 (human monocytic U937): 125 µg/mL (≈ 443 µM)
IC50 (murine monocytic J774A.1): 125 µg/mL (≈ 443 µM)
concentration at 15 min ([9]; BALB/c, mouse, plasma, 100 μg/g, mice, two-week oral administration, after 15 min): 144 ng/mL
concentration at 75 min ([9]; BALB/c, mouse, plasma, 100 μg/g, mice, two-week oral administration, after 75 min): 10 ng/mL
weight loss of treated mice ([9]; multi-dose oral, after two-days): about 1.5%
weight increase of treated mice ([9]; multi-dose oral, day 9): 5.16%
weight increase of treated mice ([9]; multi-dose oral, day 12): 9.75%
concentration at 30 min (Single dose PK assay, ip; female, BALB/c, mouse, plasma, 100 μg/g, 30 min after ip injection): 1640 ng/mL
concentration at 90 min (Single dose PK assay, ip; female, BALB/c, mouse, plasma, 100 μg/g, within 90 min of ip injection): 149 ng/mL
half-life (Single dose PK assay, ip; female, BALB/c, mouse, plasma, intraperitoneal, oral, 100 μg/g, single dose 100 μg/g, route not given, read-out: drug half-life): 20 to 30 min
half-life (Single dose PK assay, ip; female, BALB/c, mouse, plasma, ip, 100 μg/g, ip, single dose 100 μg/g, read-out: Half-Life): 22 min
Tmax (Single dose PK assay, ip; female, BALB/c, mouse, plasma, ip, single dose 100 μg/g): 30 min
AUC(0-inf) (Single dose PK assay, ip; female, BALB/c, mouse, plasma, ip, single dose 100 μg/g, read-out: AUCINF_obs (converted)): 1170 ng·h/mL
Cmax (Single dose PK assay, ip; female, BALB/c, mouse, ip, single dose 100 μg/g, plasma): 1640 ± 590 ng/mL
time to breakdown into metabolic byproducts (Single dose PK assay, ip; after ip or oral delivery): ≤ 15 min
Cl_F_obs (Single dose PK assay, ip; ip, single dose 100 μg/g): 1.46 mL/min/g and 1.46 ± 0.26 mL/min/g
Vz_F_obs (Single dose PK assay, ip; ip, single dose 100 μg/g): 47.71 mL/g and 47.71 ± 33.25 mL/g
half-life (Single dose PK assay, ip; ip, single dose 100 μg/g): 22.46 ± 17.81 min
overt toxicity (Single dose PK assay, ip; single dose 100 μg/g ip): no overt toxicity
time at which peak plasma concentration was achieved (Single dose PK assay, ip; single dose 100 μg/g, route not given): 20 to 30 min

COc1cc(/C=C/c2ccc(O)cc2)cc(OC)c1 [pterostilbene]
toxicity at high doses (mice, rats, and humans; mice, rats, and humans): non-toxic
half-lives in animal plasma ([10]; animal plasma): 120 min
plasma concentrations ([10]; animals): < 8 µg/mL

Oc1ccc(/C=C/c2cc(O)cc(O)c2)cc1 [resveratrol]
toxicity at high doses (mice, rats, and humans; in vivo): non-toxic
half-lives in animal plasma ([10]; in vivo): 15 to 60 min
